Blank lines part the entries; values can stand above or below the molecule they belong to.
Experiments:
[1] = tested on: AD tissue containing only Aβ plaques; test: in vitro binding of tritiated tracers to tau-negative AD tissue; design: species or system human; details: tracer 10 nM
Description: (§1) The tracer was tested at 10 nM and higher concentrations were not investigated in this study.
(§2) [^3H]-AV-45 (selective for Aβ plaques) binds both tau and Aβ pathology (Aβ+/tau+, Tissue #28391) and Aβ pathology only (Aβ+/tau−, Tissue #92/050) human tissues as expected (FIG. 3L-M). As a control for the human AD tissues (Tissue #28391: FIG. 4, Tissue #92/050: FIG. 5) and striatal tissue (FIG. 6) used in this study immunohistochemistry was performed. […] Furthermore, MAO-B and MAO-A expression in the human striatal tissue (#S96/037) was confirmed using immunohistochemistry (FIG. 6).

[2] = tested on: AD brain containing tau and Aβ pathology; test: in vitro binding of tritiated tracers to frozen AD brain slices with tau and Aβ pathology; design: species or system human; details: tracer 10 nM
Description: as §1, §2

MAO = test: in vitro binding of tritiated tracers to MAO-rich human tissue (striatum); details: tracer 10 nM
Description: as §1
In comparison, the tau tracer [^3H]-THK-5351 and the Aβ tracer [^3H]-AV-45 were used as THK-5351 is known to also bind MAO.

PHF = PHF (Homo sapiens, UniProt P10636); details: literature; cited from earlier work
PHF, sequence (P10636 1-441 isoform P10636-8): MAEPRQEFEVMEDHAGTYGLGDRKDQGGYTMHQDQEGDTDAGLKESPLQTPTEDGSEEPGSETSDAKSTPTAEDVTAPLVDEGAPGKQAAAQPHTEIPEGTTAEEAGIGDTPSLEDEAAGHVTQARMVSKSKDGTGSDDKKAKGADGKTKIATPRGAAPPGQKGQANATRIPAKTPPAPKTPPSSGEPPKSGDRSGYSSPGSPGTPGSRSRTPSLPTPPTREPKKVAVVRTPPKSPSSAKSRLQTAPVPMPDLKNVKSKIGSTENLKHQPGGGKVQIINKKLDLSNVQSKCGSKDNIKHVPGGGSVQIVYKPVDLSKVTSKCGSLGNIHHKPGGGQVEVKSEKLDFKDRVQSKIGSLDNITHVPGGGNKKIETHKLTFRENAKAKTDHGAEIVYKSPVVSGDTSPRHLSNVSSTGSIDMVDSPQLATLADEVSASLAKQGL

monoamine oxidase MAO-B = biological target: T1, monoamine oxidase MAO-B (Homo sapiens, UniProt P27338); details: literature; cited from earlier work
T1 construct: PET imaging of the human brain with the quinoline compound; host or cells: human brain in vivo
T1 sequence (P27338 1-520): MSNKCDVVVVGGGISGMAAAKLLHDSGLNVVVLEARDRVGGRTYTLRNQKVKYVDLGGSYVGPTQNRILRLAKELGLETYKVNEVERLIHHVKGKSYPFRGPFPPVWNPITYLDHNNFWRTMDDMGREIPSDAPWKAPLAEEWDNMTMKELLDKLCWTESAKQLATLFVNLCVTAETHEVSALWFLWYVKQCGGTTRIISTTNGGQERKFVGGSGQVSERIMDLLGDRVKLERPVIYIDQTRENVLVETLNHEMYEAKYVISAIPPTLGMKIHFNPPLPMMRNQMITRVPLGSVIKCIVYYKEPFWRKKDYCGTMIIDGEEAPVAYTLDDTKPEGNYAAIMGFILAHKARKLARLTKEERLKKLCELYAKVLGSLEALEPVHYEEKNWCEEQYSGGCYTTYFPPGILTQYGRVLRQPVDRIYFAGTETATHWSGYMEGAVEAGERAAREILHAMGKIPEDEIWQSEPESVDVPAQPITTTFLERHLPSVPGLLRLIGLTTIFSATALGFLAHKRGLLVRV

[3] = biological target: peripheral cortical benzodiazepine receptors in activated microglia (Homo sapiens, UniProt P30536); details: literature; cited from earlier work
peripheral cortical benzodiazepine receptors in activated microglia, sequence (P30536 whole entry): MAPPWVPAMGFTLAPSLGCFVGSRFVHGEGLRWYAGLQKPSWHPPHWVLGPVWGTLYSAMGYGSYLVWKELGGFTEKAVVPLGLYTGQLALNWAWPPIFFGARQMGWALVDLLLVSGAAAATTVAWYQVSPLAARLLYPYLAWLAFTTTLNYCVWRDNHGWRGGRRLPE

[4] = literature; cited from earlier work
[5] = tested on: human AD brain cortex homogenates containing abundant NFT; details: literature; cited from earlier work
[6] = biological target: T2, amyloid plaque-rich, NFT-poor AD brain homogenates (Homo sapiens, UniProt P05067); details: literature; cited from earlier work
T2 construct: amyloid plaques which form by aggregation of beta-amyloid peptide; host or cells: AD brain homogenates
T2 sequence (P05067 672-713 limits assumed): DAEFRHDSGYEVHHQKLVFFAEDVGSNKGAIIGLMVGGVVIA

tracer binding to tau-negative AD tissue containing only Aβ plaques [1]: does not bind | tracer binding to AD brain slices containing tau and Aβ pathology [2]: binds | tracer binding to MAO-rich human tissue (striatum) (MAO): no binding
SMILES: Cc1cnc(Nc2ccc3cnccc3c2)cc1F [[^3H]-Co. No. 1]

SMILES: CNc1ccc(-c2ccc3cc(OC[C@H](O)C[18F])ccc3n2)cn1 [^18F-THK5351]
affinity to PHF (PHF): high affinity | off-target binding in PET imaging of the human brain (monoamine oxidase MAO-B): confounded by off-target binding

SMILES: CCC(C)N([11CH3])C(=O)c1cc2ccccc2c(-c2ccccc2Cl)n1 (centres unmarked) [[^11C]PK11195]
brain retention, patients versus healthy volunteers [3]: failing to show any differences

tracer binding to tau-negative AD tissue containing only Aβ plaques [1]: binds | tracer binding to MAO-rich human tissue (striatum) (MAO): binds
SMILES: CNc1ccc(-c2ccc3cc(OC[C@H](O)CF)ccc3n2)cn1 [[^3H]-THK-5351, reference compound]

SMILES: Nc1c(F)ccc2cnc(-n3ccc4ccncc43)cc12 [^18F-MK-6240, 6-fluoro-3-(1H-pyrrolo[2,3-c]pyridine-1-yl)isoquinoline-5-amine]
defluorination as skull uptake [4]: Moderate defluorination | binding to human AD brain cortex homogenates containing abundant NFT [5]: binds with high affinity | binding to amyloid plaque-rich, NFT-poor AD brain homogenates [6]: binds poorly

From US12006302B2, “Tau PET imaging ligands” (Janssen Pharmaceutica NV, priority 2016, dated 2024)
